{
  "source": "patent US20080063601A1",
  "about": "“Compositions and methods relating to polycystic kidney disease” (priority 2004, published 2008)",
  "key": {"[1]": {"system": "HeLa cells", "experiment": "[3H]-triptolide competition binding in intact HeLa cells", "protocol": "To gain insight into triptolide's mechanism of action Applicant sought to determine its specific binding activity utilizing a system employing [^3H]-triptolide. In addition to competition with 1 μM or 10 μM unlabeled triptolide, Applicant also measured the binding affinities of triptolide analogs (FIG. 3A). These analogs have been previously described and differ structurally from triptolide in the hydrolysis of the 12,13 epoxide (2), and formation of the ketone at the C-14 hydroxyl (3) (FIG. 3A). […] The effective interaction of these analogs with a presumed triptolide binding entity led us to their use in subsequent experiments addressing the mode of triptolide's biological functions.\nLabeling studies were performed by the addition of approximately 30 nM [^3H]-triptolide directly into the culture media for one hour at 37° C. For cold competition studies, 1 μM triptolide was incubated with the cells for one hour before or after the addition of [^3H]-triptolide. Triptolide analog studies followed a similar protocol where concentrations used for competition were either 1 or 10 μM added before [^3H]-triptolide. Medium was removed and cells were washed 3× in cold PBS. Total cell lysates were prepared (150 mM NaCl, 50 mM Tris-HCl pH 7.4, 1 mM EDTA, 1% Triton X-100, and Complete™ protease inhibitors (Roche)) and protein was quantitated before measuring the [^3H]-triptolide binding activity via liquid scintillation."}, "[2]": {"system": "HeLa cells", "experiment": "HeLa cell viability by trypan blue dye exclusion", "type": "cell-based", "protocol": "Since extracellular calcium concentration can influence triptolide binding Applicant sought to determine if the presence of calcium influences the rate of triptolide-mediated apoptosis. To first establish the growth rate of HeLa in media±calcium, cell counts were performed over a 72 hour time course. Although calcium-free media caused cells to detach more easily, the overall growth rates were similar where cell doubling occurred every 24 hours on average (FIG. 5B). For triptolide experiments, cells were initially equilibrated in medium±calcium for 16 hours before the addition of 100 nM triptolide. Cell death was assessed by trypan blue dye exclusion at 24, 48, and 72 hours post drug treatment. In the presence of calcium-containing medium, triptolide induced at least 50% cell death by 24 hours with this trend continuing through later time points (FIG. 5C).\nApplicant's results have implicated reversible binding of triptolide to a potential binding protein or complex that can be regulated by calcium. To understand if triptolide function is further separable between cell death and NFκB inhibition, Applicant examined the effect of concentration on these two endpoints. HeLa cells were cultured in the presence of 0, 10, 25, 50, or 100 nM of triptolide and separately assessed for cell death or the ability to suppress NFκB transactivation promoted by TNF-α. Following 24-48 hours of culture, viable cells were recovered and counted. Following 24 hours, triptolide concentrations from 25-100 nM caused greater than 50% of the cells to undergo cell death as assessed by detachment, clumping and the failure to exclude trypan blue dye. […] This is consistent with previous studies showing that low doses of triptolide cause cell cycle arrest rather than apoptosis (Kiviharju, et al., 2002, Clin Cancer Res 8, 2666-2674).\nBased upon Applicant's studies examining the concentration dependent effect of triptolide on the two measured biological endpoints, cell death and transcriptional repression, Applicant wanted to determine how modulating triptolide's structure may also discriminate between the two pathways. For cell viability assays, HeLa cells were incubated with 0, 0.1, 1, or 10 μM of each analog or triptolide for 24 hours and then counted using trypan blue dye exclusion. […] NFκB transcriptional inhibition was measured using the κB-luciferase assay as previously described following 5 hours of incubation with each analog (0-10 μM) and TNF-α addition.\nHeLa cells were incubated in DMEM or SMEM (Gibco) media+10% FBS and maintained at 37° C. in 5% CO2 for all experiments. HeLa cell viability was assessed by trypan blue dye exclusion, as well as by morphological examination (non-viable cells were rounded and detached from culture plate)."}, "[3]": {"experiment": "in vitro", "type": "cell-based", "settings": "human", "from_the_text": "(§1) To investigate further the role of calcium in triptolide function Applicant utilized a system to buffer intracellular calcium levels. Various GFP-parvalbumin (PV) fusion proteins can be specifically localized to either the nucleus or the cytoplasm through a nuclear localization or exclusion signal (NLS or NES, respectively) (Pusl, et al., 2002, J Biol Chem 277, 27517-27527). Parvalbumin has two EF-hand calcium binding domains and can efficiently reduce the availability of free calcium in the cell (Pauls, et al., 1996, Biochim Biophys Acta 1306, 39-54). HeLa cells were transiently transfected with the GFP vector control, NES-PV-GFP, or NLS-PV-GFP in calcium containing media and efficient expression of each construct was determined by GFP localization (FIG. 6A). Normal cell growth was first assessed throughout 48 hours with each of the constructs. […] For triptolide experiments, cells were transfected and allowed to express the construct for 24 hours before the addition of 100 nM triptolide. After 24 and 48 hours of treatment, cells were assessed for viability. […] Since the parvalbumin buffering experiments are done in the presence of extracellular calcium, the cell can operate normally in that intracellular calcium stores may be refilled. It is reasonable to expect then if calcium homeostasis is being affected (i.e., cytosolic calcium levels increase) by triptolide, then parvalbumin would eventually reach a saturation point. This might explain why the rescue from apoptosis is transient through the 24 hour time point but is lost by 48 hours.\n(§2) All parvalbumin-GFP constructs and control vectors (Pusl, et al., 2002, J Biol Chem 277, 27517-27527) were a gift of Anton Bennett (Yale University). Hela cells were plated out on 6- or 12-well plates at a density of 5×10^5 or 1×10^5, respectively. […] Cell viability was assessed at 24 and 48 hours post triptolide addition by morphology and trypan blue dye exclusion."}, "[4]": {"system": "HeLa cells", "experiment": "in vitro", "type": "cell-based", "settings": "HeLa, 100 nM", "from_the_text": "as §1, §2"}},
  "data": [
    {"smiles": "CC(C)[C@]12O[C@H]1[C@@H]1O[C@]13[C@]1(O[C@H]1C[C@H]1C4=C(CC[C@@]13C)C(=O)OC4)[C@@H]2O", "note": "[triptolide]", "values": [
      {"measurement": "nature of triptolide binding (out-competed by subsequent excess unlabeled triptolide)", "setting": "[1]; 1 μM cold triptolide after [3H]-triptolide", "value": "reversible"},
      {"measurement": "displacement of / competition for [3H]-triptolide binding", "setting": "[1]; 1 or 10 μM unlabeled competitor for 1 h before approx. 30 nM [3H]-triptolide for 1 h", "value": "significantly competed"},
      {"measurement": "minimal incubation time required for commitment to apoptosis", "setting": "[2]", "value": "three to four hours"},
      {"measurement": "effect on cell proliferation and cell death", "setting": "[2]; 10 nM, 48 hours", "value": "inhibited cell proliferation but did not induce cell death"},
      {"measurement": "cell death", "setting": "[2]; 0.1 μM, 24 hours", "value": 60, "unit": "%"},
      {"measurement": "cell death", "setting": "[2]; 0.1 μM, 24 hours, listed as Triptolide", "value": "greater than 50%"},
      {"measurement": "cells died", "setting": "[2]; 100 nM, calcium free media, 72 hours", "value": 35, "unit": "%"},
      {"measurement": "cell death", "setting": "[2]; 100 nM, calcium-containing medium, by 24 hours", "value": "at least 50%"},
      {"measurement": "cells undergoing cell death", "setting": "[2]; 25-100 nM, 24 hours", "value": "greater than 50%"},
      {"measurement": "cells died", "setting": "[2]; 25-100 nM, 48 hours", "value": "nearly all cells"},
      {"measurement": "cytotoxicity at 24 h, 0.1 µM", "setting": "[3]", "value": 50, "unit": "%"},
      {"measurement": "cell death in all transfection conditions", "setting": "[4]; by 48 hours", "value": "complete cell death"},
      {"measurement": "apoptosis", "setting": "[4]; cytosolic parvalbumin (NES-PV-GFP), 24 hours", "value": "15-20%"}
    ]}
  ]
}
